Assay results as given in the kinase profiling compilation of Christmann-Franck et al. (2016).

Legend:
Assay in all cases: radiometric filter-binding kinase assay
EPHB2 (human) = EPHB2 (human) (UniProt P29323)
CaMK1 (human) = CaMK1 (human) (UniProt Q14012)
PAK7 (human) = PAK7 (human) (UniProt Q9P286)
AURKA (human) = AURKA (human) (UniProt O14965)
PRKAA1 or PRKAA2 (rat) = conditions: accession and sequence are those of the human protein
PAK4 (human) = PAK4 (human) (UniProt O96013)
BRSK2 (human) = BRSK2 (human) (UniProt Q8IWQ3)
MAPK10 (human) = MAPK10 (human) (UniProt P53779)
Chain of MAPK10 (human) (P53779 whole entry, looked up): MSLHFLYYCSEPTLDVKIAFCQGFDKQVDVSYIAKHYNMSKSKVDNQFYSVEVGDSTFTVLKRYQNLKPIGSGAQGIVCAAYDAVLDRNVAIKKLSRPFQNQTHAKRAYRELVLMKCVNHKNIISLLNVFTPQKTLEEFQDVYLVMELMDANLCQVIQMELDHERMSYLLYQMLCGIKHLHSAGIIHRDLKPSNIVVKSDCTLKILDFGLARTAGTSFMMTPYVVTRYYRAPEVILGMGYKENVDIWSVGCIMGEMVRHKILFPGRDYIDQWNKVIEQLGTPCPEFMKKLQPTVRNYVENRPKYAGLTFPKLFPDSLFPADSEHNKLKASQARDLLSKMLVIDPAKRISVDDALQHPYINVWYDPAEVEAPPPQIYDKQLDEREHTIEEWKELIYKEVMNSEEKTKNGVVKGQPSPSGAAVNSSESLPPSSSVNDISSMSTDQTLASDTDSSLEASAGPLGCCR

ERBB4 (human) = ERBB4 (human) (UniProt Q15303)
HIPK2 (human) = HIPK2 (human) (UniProt Q9H2X6)
Chain of HIPK2 (human) (Q9H2X6 whole entry, looked up): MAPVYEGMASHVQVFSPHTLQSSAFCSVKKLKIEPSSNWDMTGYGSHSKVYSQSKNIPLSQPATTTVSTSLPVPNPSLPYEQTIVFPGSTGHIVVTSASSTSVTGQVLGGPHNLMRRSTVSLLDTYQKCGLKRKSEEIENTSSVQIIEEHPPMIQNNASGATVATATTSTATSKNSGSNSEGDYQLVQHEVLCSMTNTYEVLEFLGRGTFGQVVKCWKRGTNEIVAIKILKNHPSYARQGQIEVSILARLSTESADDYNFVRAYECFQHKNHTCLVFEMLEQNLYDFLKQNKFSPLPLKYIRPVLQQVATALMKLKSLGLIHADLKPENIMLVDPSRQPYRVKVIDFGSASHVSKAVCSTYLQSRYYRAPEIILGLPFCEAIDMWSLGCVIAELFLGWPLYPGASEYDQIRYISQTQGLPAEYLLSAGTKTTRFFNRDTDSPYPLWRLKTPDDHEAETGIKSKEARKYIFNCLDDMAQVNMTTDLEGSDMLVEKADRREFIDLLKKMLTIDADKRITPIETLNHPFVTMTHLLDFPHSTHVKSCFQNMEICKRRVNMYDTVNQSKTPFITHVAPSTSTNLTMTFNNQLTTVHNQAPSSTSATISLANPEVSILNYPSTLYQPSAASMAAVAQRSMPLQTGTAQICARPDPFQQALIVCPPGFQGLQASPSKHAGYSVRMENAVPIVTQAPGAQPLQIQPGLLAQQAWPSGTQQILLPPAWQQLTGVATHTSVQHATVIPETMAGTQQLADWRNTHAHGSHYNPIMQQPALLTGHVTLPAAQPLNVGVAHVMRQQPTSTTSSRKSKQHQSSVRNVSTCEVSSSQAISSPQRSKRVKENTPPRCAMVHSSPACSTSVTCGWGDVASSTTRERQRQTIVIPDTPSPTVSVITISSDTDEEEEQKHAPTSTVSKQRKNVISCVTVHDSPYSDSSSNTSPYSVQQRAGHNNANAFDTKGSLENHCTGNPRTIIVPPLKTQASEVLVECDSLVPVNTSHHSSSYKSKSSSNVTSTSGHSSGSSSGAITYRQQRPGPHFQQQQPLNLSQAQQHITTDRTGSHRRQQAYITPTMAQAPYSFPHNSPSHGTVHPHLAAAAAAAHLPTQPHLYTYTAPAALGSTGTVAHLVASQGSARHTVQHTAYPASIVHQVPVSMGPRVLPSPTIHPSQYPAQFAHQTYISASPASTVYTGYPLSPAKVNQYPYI

PRKCA (human) = PRKCA (human) (UniProt P17252)
MAPK3 (human) = MAPK3 (human) (UniProt P27361)
SYK (human) = SYK (human) (UniProt P43405)
MAPKAPK3 (human) = MAPKAPK3 (human) (UniProt Q16644)
Chain of MAPKAPK3 (human) (Q16644 whole entry, looked up): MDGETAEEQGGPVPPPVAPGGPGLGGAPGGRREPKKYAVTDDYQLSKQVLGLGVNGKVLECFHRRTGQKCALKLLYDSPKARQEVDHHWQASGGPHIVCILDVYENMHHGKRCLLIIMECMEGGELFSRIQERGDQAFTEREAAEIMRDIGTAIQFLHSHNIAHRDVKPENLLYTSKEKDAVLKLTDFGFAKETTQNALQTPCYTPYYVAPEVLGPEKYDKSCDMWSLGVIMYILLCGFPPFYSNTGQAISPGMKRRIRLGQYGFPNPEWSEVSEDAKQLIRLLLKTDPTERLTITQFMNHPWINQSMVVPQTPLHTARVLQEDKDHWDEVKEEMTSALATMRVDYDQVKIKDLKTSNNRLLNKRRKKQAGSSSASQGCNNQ

MAPK12 (human) = MAPK12 (human) (UniProt P53778)
Chain of MAPK12 (human) (P53778 whole entry, looked up): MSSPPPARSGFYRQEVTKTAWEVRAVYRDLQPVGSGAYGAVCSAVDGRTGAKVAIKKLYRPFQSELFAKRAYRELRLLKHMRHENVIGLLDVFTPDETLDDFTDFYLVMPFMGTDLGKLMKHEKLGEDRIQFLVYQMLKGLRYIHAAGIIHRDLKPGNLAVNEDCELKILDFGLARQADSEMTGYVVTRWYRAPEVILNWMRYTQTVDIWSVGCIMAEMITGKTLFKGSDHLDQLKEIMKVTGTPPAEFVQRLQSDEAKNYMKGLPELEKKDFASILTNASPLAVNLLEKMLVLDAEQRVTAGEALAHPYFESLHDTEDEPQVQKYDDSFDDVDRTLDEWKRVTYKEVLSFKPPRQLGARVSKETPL

DYRK2 (human) = DYRK2 (human) (UniProt Q92630)
EPHB3 (human) = EPHB3 (human) (UniProt P54753)
MAP2K6 (human) = MAP2K6 (human) (UniProt P52564)
NUAK1 (human) = NUAK1 (human) (UniProt O60285)
[1] = tested on: AKT1 (human), P31749 [S473D]
IKBKE (human) = IKBKE (human) (UniProt Q14164)
PLK1 (human) = PLK1 (human) (UniProt P53350)
PRKACA (human) = PRKACA (human) (UniProt P17612)
MAP3K11 (human) = MAP3K11 (human) (UniProt Q16584)
Chain of MAP3K11 (human) (Q16584 whole entry, looked up): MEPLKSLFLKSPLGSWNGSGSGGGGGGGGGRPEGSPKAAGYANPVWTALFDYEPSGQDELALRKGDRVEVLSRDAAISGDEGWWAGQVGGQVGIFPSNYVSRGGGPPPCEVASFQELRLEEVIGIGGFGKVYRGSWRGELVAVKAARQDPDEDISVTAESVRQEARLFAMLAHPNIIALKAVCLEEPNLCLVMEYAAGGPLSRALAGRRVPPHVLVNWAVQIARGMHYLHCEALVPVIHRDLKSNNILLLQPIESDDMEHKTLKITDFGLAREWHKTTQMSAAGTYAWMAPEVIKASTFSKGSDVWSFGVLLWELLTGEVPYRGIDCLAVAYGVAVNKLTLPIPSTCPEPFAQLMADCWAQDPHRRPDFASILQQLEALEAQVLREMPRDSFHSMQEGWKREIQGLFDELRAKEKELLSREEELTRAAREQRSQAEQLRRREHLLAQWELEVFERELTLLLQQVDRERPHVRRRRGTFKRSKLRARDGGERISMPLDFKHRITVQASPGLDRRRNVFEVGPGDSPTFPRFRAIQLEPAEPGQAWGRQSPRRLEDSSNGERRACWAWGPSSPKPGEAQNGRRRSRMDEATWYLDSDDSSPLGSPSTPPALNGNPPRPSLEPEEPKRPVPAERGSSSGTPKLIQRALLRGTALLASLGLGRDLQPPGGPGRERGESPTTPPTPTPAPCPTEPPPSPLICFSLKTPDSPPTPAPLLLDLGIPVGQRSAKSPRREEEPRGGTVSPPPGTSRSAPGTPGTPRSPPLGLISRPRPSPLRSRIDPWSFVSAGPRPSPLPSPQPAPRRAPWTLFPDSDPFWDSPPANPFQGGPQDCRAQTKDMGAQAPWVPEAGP

RPS6KA1 KD1 KD2 (human) = RPS6KA1 KD1 KD2 (human) (UniProt Q15418)
DYRK1A (human) = DYRK1A (human) (UniProt Q13627)
CHEK2 (human) = CHEK2 (human) (UniProt O96017)
MAPK1 (human) = MAPK1 (human) (UniProt P28482)
MST4 (human) = MST4 (human) (UniProt Q9P289)
[2] = tested on: SGK1 (human), O00141 [S422D]
MKNK1 (human) = MKNK1 (human) (UniProt Q9BUB5)
Chain of MKNK1 (human) (Q9BUB5 whole entry, looked up): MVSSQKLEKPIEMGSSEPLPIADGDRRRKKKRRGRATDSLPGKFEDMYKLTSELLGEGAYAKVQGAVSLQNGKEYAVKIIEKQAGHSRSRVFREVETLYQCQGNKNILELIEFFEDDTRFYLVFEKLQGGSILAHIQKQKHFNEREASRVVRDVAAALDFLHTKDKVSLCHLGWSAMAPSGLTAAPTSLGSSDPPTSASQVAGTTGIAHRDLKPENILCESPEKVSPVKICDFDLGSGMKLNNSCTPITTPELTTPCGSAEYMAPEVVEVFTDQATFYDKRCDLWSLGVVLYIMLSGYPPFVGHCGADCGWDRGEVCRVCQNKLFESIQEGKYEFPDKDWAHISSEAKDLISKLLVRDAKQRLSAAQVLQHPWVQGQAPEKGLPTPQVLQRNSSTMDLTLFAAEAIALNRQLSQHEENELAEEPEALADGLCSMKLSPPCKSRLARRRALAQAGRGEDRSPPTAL

NEK2 (human) = NEK2 (human) (UniProt P51955)
MAPK8 (human) = MAPK8 (human) (UniProt P45983)
MAPK13 (human) = MAPK13 (human) (UniProt O15264)
MARK2 (human) = MARK2 (human) (UniProt Q7KZI7)

Chain of EPHB2 (human) (P29323 whole entry, looked up): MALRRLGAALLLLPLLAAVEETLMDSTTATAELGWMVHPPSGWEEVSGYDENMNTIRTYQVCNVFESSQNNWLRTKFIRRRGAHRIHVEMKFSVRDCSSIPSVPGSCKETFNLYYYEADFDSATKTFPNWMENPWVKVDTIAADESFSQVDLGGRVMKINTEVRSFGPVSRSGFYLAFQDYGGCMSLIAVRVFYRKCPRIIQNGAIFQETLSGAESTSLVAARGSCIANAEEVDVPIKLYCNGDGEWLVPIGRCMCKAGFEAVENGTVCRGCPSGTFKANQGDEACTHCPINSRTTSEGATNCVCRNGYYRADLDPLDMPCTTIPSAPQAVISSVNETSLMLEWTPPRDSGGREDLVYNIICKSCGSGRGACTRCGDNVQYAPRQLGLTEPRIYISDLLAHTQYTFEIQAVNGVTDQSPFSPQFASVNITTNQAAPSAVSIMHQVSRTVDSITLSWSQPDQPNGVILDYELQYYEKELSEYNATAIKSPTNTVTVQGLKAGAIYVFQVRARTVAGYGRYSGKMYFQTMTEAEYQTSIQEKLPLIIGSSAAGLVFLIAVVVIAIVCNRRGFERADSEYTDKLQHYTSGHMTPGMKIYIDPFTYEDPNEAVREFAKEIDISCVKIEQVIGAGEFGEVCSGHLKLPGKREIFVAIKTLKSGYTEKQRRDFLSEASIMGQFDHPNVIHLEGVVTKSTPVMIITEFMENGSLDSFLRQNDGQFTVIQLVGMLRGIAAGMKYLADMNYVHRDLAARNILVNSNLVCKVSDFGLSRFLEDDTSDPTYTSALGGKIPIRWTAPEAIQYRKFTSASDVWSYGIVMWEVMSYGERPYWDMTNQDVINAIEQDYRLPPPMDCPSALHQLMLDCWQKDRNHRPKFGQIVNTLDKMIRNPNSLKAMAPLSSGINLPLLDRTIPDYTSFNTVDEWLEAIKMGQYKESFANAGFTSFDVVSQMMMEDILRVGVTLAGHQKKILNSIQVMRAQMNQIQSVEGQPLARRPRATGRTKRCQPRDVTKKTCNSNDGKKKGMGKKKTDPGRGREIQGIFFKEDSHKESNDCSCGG

## CNC(=O)C1[C@H]2O[C@@](C)([C@@H]1N)n1c3ccccc3c3c4c(c5c6ccccc6n2c5c31)C(=O)NC4 (stereo partly drawn)
EPHB2 (human); compound 0.01 µM
  residual activity: 108%
EPHB2 (human); compound 0.1 µM
  residual activity: 89%
EPHB2 (human); compound 1.0 µM
  residual activity: 34%
CaMK1 (human); compound 0.01 µM
  residual activity: 97%
CaMK1 (human); compound 0.1 µM
  residual activity: 25%
CaMK1 (human); compound 1.0 µM
  residual activity: 4%
PAK7 (human); compound 0.01 µM
  residual activity: 17%
PAK7 (human); compound 0.1 µM
  residual activity: 4%
PAK7 (human); compound 1.0 µM
  residual activity: 2%
AURKA (human); compound 0.01 µM
  residual activity: 28%
AURKA (human); compound 0.1 µM
  residual activity: 4%
AURKA (human); compound 1.0 µM
  residual activity: 5%
PRKAA1 or PRKAA2 (rat); compound 0.01 µM
  residual activity: 6%
PRKAA1 or PRKAA2 (rat); compound 0.1 µM
  residual activity: 2%
PRKAA1 or PRKAA2 (rat); compound 1.0 µM
  residual activity: 1%
PAK4 (human); compound 0.01 µM
  residual activity: 25%
PAK4 (human); compound 0.1 µM
  residual activity: 7%
PAK4 (human); compound 1.0 µM
  residual activity: 7%
BRSK2 (human); compound 0.01 µM
  residual activity: 16%
BRSK2 (human); compound 0.1 µM
  residual activity: 10%
BRSK2 (human); compound 1.0 µM
  residual activity: 8%
MAPK10 (human); compound 0.01 µM
  residual activity: 65%
MAPK10 (human); compound 0.1 µM
  residual activity: 30%
MAPK10 (human); compound 1.0 µM
  residual activity: 26%
ERBB4 (human); compound 0.01 µM
  residual activity: 96%
ERBB4 (human); compound 0.1 µM
  residual activity: 63%
ERBB4 (human); compound 1.0 µM
  residual activity: 14%
HIPK2 (human); compound 0.01 µM
  residual activity: 85%
HIPK2 (human); compound 0.1 µM
  residual activity: 30%
HIPK2 (human); compound 1.0 µM
  residual activity: 6%
PRKCA (human); compound 0.01 µM
  residual activity: 79%
PRKCA (human); compound 0.1 µM
  residual activity: 44%
MAPK3 (human); compound 0.1 µM
  residual activity: 4%
MAPK3 (human); compound 1.0 µM
  residual activity: 2%
SYK (human); compound 0.01 µM
  residual activity: 21%
SYK (human); compound 0.1 µM
  residual activity: 6%
SYK (human); compound 1.0 µM
  residual activity: 2%
MAPKAPK3 (human); compound 0.01 µM
  residual activity: 91%
MAPKAPK3 (human); compound 0.1 µM
  residual activity: 74%
MAPKAPK3 (human); compound 1.0 µM
  residual activity: 29%
MAPK12 (human); compound 0.01 µM
  residual activity: 76%
MAPK12 (human); compound 0.1 µM
  residual activity: 29%
MAPK12 (human); compound 1.0 µM
  residual activity: 6%
DYRK2 (human); compound 0.01 µM
  residual activity: 41%
DYRK2 (human); compound 0.1 µM
  residual activity: 9%
DYRK2 (human); compound 1.0 µM
  residual activity: 4%
EPHB3 (human); compound 0.01 µM
  residual activity: 106%
EPHB3 (human); compound 0.1 µM
  residual activity: 100%
EPHB3 (human); compound 1.0 µM
  residual activity: 83%
MAP2K6 (human); compound 0.01 µM
  residual activity: 10%
MAP2K6 (human); compound 0.1 µM
  residual activity: 13%
MAP2K6 (human); compound 1.0 µM
  residual activity: 5%
NUAK1 (human); compound 0.01 µM
  residual activity: 2%
NUAK1 (human); compound 0.1 µM
  residual activity: 2%
NUAK1 (human); compound 1.0 µM
  residual activity: 1%
[1]; compound 0.01 µM
  residual activity: 93%
[1]; compound 0.1 µM
  residual activity: 44%
[1]; compound 1.0 µM
  residual activity: 5%
IKBKE (human); compound 0.01 µM
  residual activity: 6%
IKBKE (human); compound 0.1 µM
  residual activity: 1%
IKBKE (human); compound 1.0 µM
  residual activity: 2%
PLK1 (human); compound 0.01 µM
  residual activity: 68%
PLK1 (human); compound 0.1 µM
  residual activity: 38%
PLK1 (human); compound 1.0 µM
  residual activity: 22%
PRKACA (human); compound 0.01 µM
  residual activity: 29%
PRKACA (human); compound 0.1 µM
  residual activity: 5%
PRKACA (human); compound 1.0 µM
  residual activity: 2%
MAP3K11 (human); compound 0.01 µM
  residual activity: 17%
MAP3K11 (human); compound 0.1 µM
  residual activity: 5%
MAP3K11 (human); compound 1.0 µM
  residual activity: 3%
RPS6KA1 KD1 KD2 (human); compound 0.01 µM
  residual activity: 9%
RPS6KA1 KD1 KD2 (human); compound 0.1 µM
  residual activity: 3%
RPS6KA1 KD1 KD2 (human); compound 1.0 µM
  residual activity: 1%
DYRK1A (human); compound 0.01 µM
  residual activity: 29%
DYRK1A (human); compound 0.1 µM
  residual activity: 8%
DYRK1A (human); compound 1.0 µM
  residual activity: 3%
CHEK2 (human); compound 0.01 µM
  residual activity: 24%
CHEK2 (human); compound 0.1 µM
  residual activity: 5%
CHEK2 (human); compound 1.0 µM
  residual activity: 2%
MAPK1 (human); compound 0.01 µM
  residual activity: 22%
MAPK1 (human); compound 0.1 µM
  residual activity: 6%
MAPK1 (human); compound 1.0 µM
  residual activity: 5%
MST4 (human); compound 0.01 µM
  residual activity: 86%
MST4 (human); compound 0.1 µM
  residual activity: 26%
MST4 (human); compound 1.0 µM
  residual activity: 20%
[2]; compound 0.01 µM
  residual activity: 79%
[2]; compound 0.1 µM
  residual activity: 32%
[2]; compound 1.0 µM
  residual activity: 10%
MKNK1 (human); compound 0.01 µM
  residual activity: 61%
MKNK1 (human); compound 0.1 µM
  residual activity: 16%
MKNK1 (human); compound 1.0 µM
  residual activity: 9%
NEK2 (human); compound 0.01 µM
  residual activity: 105%
NEK2 (human); compound 0.1 µM
  residual activity: 105%
NEK2 (human); compound 1.0 µM
  residual activity: 66%
MAPK8 (human); compound 0.01 µM
  residual activity: 91%
MAPK8 (human); compound 0.1 µM
  residual activity: 4%
MAPK8 (human); compound 1.0 µM
  residual activity: 1%
MAPK13 (human); compound 0.01 µM
  residual activity: 100%
MAPK13 (human); compound 0.1 µM
  residual activity: 97%
MAPK13 (human); compound 1.0 µM
  residual activity: 48%
MARK2 (human); compound 0.01 µM
  residual activity: 11%
MARK2 (human); compound 0.1 µM
  residual activity: 5%
MARK2 (human); compound 1.0 µM
  residual activity: 4%
